In US9308180B2, “Compositions and methods for preparation of poorly water soluble drugs with increased stability” (Abraxis BioScience, LLC, priority 2005, dated 2016):

What was measured:
[1] = Rate of dissolution of docetaxel forms in acetonitrile; assay type: physicochemical; conditions: 5 mg/mL (anhydrous basis)
Method: To compare if the different types of docetaxel material had different solubility profiles as a result of their different structures, their solubility rates were compared in the solvent acetonitrile. Acetonitrile was added to a fixed amount of docetaxel from different suppliers to obtain a concentration of 5 mg/mL (anhydrous basis). The rate at which dissolution of the different docetaxels occurred was observed. It was observed that the anhydrous docetaxels (from 2 different suppliers) dissolved completely in less than 1 minute. […] Under these further diluted conditions, the time to dissolve was between 5 and 10 minutes for the hydrated materials. A similar observation was made when using the solvent chloroform.

[2] = Stability of docetaxel forms dissolved in Tween 80; assay type: physicochemical; conditions: 40 mg/mL (on anhydrous basis) in Tween 80, after a few days
Method: It is well known that docetaxel is formulated with Tween 80 as a solubilizer or emulsifier for the commercial product Taxotere. The different docetaxels were dissolved in Tween 80 at a concentration of 40 mg/mL (on anhydrous basis). […] Thus, the anhydrous docetaxel is preferred in the Tween formulation. In addition it may be useful to use a Tween 80 or equivalent surfactant that is anhydrous or very low in water content as the anhydrous form of docetaxel may absorb water to form the hydrated form which could result in precipitation.

Row | Dissolution (observation) [1] | Time to dissolve completely [1] | Sediment or precipitate in Tween 80 solution [2] | SMILES
1 | did not readily dissolve |  |  | CC(=O)O[C@@]12CO[C@@H]1C[C@H](O)[C@@]1(C)C(=O)[C@H](O)C3=C(C)[C@@H](OC(=O)[C@H](O)[C@@H](NC(=O)OC(C)(C)C)c4ccccc4)C[C@@](O)([C@@H](OC(=O)c4ccccc4)[C@H]21)C3(C)C [partial hydrate, docetaxel hemihydrate]
2 |  | less than 1 minute | no precipitate was observed | CC(=O)O[C@@]12CO[C@@H]1C[C@H](O)[C@@]1(C)C(=O)[C@H](O)C3=C(C)[C@@H](OC(=O)[C@H](O)[C@@H](NC(=O)OC(C)(C)C)c4ccccc4)C[C@@](O)([C@@H](OC(=O)c4ccccc4)[C@H]21)C3(C)C [anhydrous docetaxel, docetaxel]
